The source made the active and inactive calls.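 How the source made its calls: active means fitted curve crossing a set activation limit at or below the highest valid dose tested; inconclusive means flat fit at 30 to 70% activation, or poor fit; inactive means the rest, including signal decreases.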
Test system: D54 ERlucT glycosylation luciferase reporter, luminescence, 24 h
Test: N-linked glycosylation inhibitors, luciferase reporter, dose response, D54 ERlucT cells, luminescence, cherry-picks (AID 624491);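 further: signal gain reflects blocked N-linked glycosylation of a luciferase reporter; actives raise luciferase signal so AC26 marks activators of the reporter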

Row | Compound | AC26
1 | CCOc1cc(-c2cc(-c3ccccc3)nc(N)c2C#N)ccc1O | 2480 nM
2 | COc1ccc(C(=O)Nc2sc(C)c(C)c2CN2CC(C)OC(C)C2)cc1 (stereo not given) | 659 nM
3 | COc1ccc(/C=N/NC(=O)c2cccc(NC(=O)c3ccccc3Cl)c2)cc1 | 5130 nM
4 | O=C(CC1Sc2ccccc2NC1=O)NNc1ccc(Cl)c(Cl)c1 (stereo not given) | 2840 nM
5 | COc1ccccc1-c1csc(C(NC(C)=O)c2ccccc2)n1 (stereo not given) | < 1.2 nM
6 | CCOC(=O)C(C)Oc1cccc2c(=O)n(CC(=O)NCc3ccc(F)cc3)ccc12 (stereo not given) | 1720 nM
7 | COc1ccc2c(c1)[C@H]1[C@H](CO2)[C@H](c2ccccc2)[C@]2(C)C(=O)Nc3ccc(F)cc3C(=O)N12 | 568 nM
8 | CCOC(=O)C1CCN(c2c(N3CCN(Cc4ccccc4)CC3)c(=O)c2=O)CC1 | 1810 nM
9 | Cc1[nH]c2ccc(C(=O)N3CCN(c4cccc(Cl)c4)CC3)cc2c1C | 8650 nM
10 | Cc1ccc(S(=O)(=O)[N-]c2nc3ccccc3nc2-n2cc[n+](Cc3ccccc3)c2)cc1 | 118 nM
11 | CN(C)c1ccc(/C=C/C(=O)c2ccc(C(C)(C)C)cc2)cc1[N+](=O)[O-] | 5570 nM
12 | COC(=O)c1cc(=O)n(-c2ccc(F)cc2)c(=Nc2ccc(F)cc2)s1 | 4230 nM
13 | COc1cc(C(=O)NCC(=O)NCCN2C(=O)S/C(=C\c3ccccc3Cl)C2=O)cc(OC)c1OC | 2430 nM
14 | CCN(CC)CCn1c2ccccc2c2nc3ccccc3nc21 | 1950 nM
15 | CC12CC[C@H]3[C@@H](CCC4(O)C[C@H](O)CCC34/C=N/NC(=O)c3ccccc3O)C1(O)CCC2C1=CC(=O)OC1 (stereo not given in full) | 6060 nM
16 | COc1cccc(C(=O)Nc2sc3c(c2C#N)CCN(C(C)=O)C3)c1 | 9.19 nM
17 | Cc1cc(NC(=O)CN2C(=O)NC3(CCCCCC3)C2=O)ccc1Br | 1570 nM
18 | COc1ccc(/C=N/NC(=O)c2c(C)nc3ccc(Br)cn23)cc1OC | 2520 nM
19 | O=C(NO)c1ccc(OC(F)F)cc1 | 3430 nM
20 | COc1cc2c(cc1OC)C(c1cccs1)N(C(=O)c1cccnc1)CC2 (stereo not given) | 806 nM
21 | Cc1ccc(C)n1-c1cccc(NC(=O)c2ccccc2)c1 | 8830 nM
22 | Cc1cc(NC(=O)NC(=O)c2ccccc2NC(=O)C(C)N)ccc1Oc1ncc(Br)cn1 (stereo not given) | 1060 nM

Row | Compound | AC26
23 | O=c1c2ccccc2sc2c(CO)ccc(NCCN3CCCCC3)c12 | 705 nM
24 | O=C(c1ccc2ncsc2c1)N1CCN(c2cccc(C(F)(F)F)c2)CC1 | 4190 nM
25 | CC(C)CN(C(=O)COC(=O)CCSc1ccc(Cl)cc1)c1c(N)n(Cc2ccccc2)c(=O)[nH]c1=O | 4450 nM
26 | COC(=O)c1ccccc1NC(=O)Cn1c(-c2nonc2N)nc2ccccc21 | 120 nM
27 | CC=Cc1cc2c(c(=O)o1)C(=O)C(O)C(C)O2 (stereo not given) | 5300 nM
28 | CCOC(=O)C1=CC[C@@H](c2ccncc2)N(S(=O)(=O)c2ccc(C)cc2)C1 | 12100 nM
29 | COc1ccc(-c2cc3ccccc3oc2=O)cc1NC(=O)c1ccc([N+](=O)[O-])o1 | 751 nM
30 | COc1ccc(C(=O)NCCN(C)C)c2nc3ccccc3cc12 | 128 nM
31 | Cc1c(-c2nc(N)nc(Nc3ccccc3)n2)oc2ccccc12 | 3890 nM
32 | Cc1ccccc1NS(=O)(=O)c1ccc2c3c(cccc13)C(=O)N2C | 3400 nM
33 | CCc1ccc(N2CC(C(=O)Nc3ccccc3N3CCCC3)CC2=O)cc1 (stereo not given) | 5370 nM
34 | c1ccc2cc3c(NCCN4CCOCC4)ccnc3cc2c1 | 515 nM
35 | COc1cc(/C=N/NC(=O)c2ccc(-c3ccccc3)cc2)cc(OC)c1OC | 1350 nM
36 | Cn1c(SCC(=O)Nc2cccc(F)c2)nc2c([nH]c3ccccc32)c1=O | 5420 nM
37 | O=C(Nc1cccc(NC(=O)c2cccs2)c1)c1ccc([N+](=O)[O-])o1 | 1820 nM
38 | COc1ccc(C(=O)/C=C2/C(=O)Nc3ccccc32)c(OC)c1 | 4070 nM
39 | O=C(CCl)N1CCCC1c1ccc2c(c1)OCCO2 (stereo not given) | 608 nM
40 | O=C(NCCN1C(=O)S/C(=C\c2ccc(Cl)cc2Cl)C1=O)C1=COCCO1 | > 19500 nM (inactive)
41 | CC(=O)NC(=C(Cl)Cl)S(=O)(=O)c1ccccc1 | 1080 nM
42 | O=C(Nc1ccc(Cc2ccncc2)cc1)c1ccc([N+](=O)[O-])o1 | 1150 nM
43 | NC(=O)c1cccc(Nc2nc(C(N)CCc3ccccc3)cs2)n1 (stereo not given) | 8640 nM
44 | C=CCNc1nc(Nc2ccc(OC)c(OC)c2)c2sc(-c3ccccc3)cc2n1 | 513 nM

Row | Compound | AC26
45 | CCOc1ccc(NC(=O)c2cc(OC)nc3ccccc23)cc1 | 284 nM
46 | CC(=O)c1sc(Nc2cccc3ccccc23)nc1C | 6110 nM
47 | COc1ccccc1-n1cnc2cc(NCc3cccs3)ccc21 | 141 nM
48 | O=C(NCc1cccs1)C1Cc2c(-c3ccc(Cl)cc3)ccnc2O1 (stereo not given) | 1670 nM
49 | Cc1cccc(NC(=O)c2cnn3ccccc23)c1C | 9570 nM
50 | COc1cc(CN2CCc3ccccc3C2)ccc1O | 696 nM
51 | CC1(C(=O)NCc2ccccc2)Cc2c(-c3cccc(C(N)=O)c3)ccnc2O1 (stereo not given) | 2100 nM
52 | CC(=O)Nc1ccc2cc3ccc(NC(C)=O)cc3nc2c1 | 5210 nM
53 | COc1ccc(NC(=O)C2(C)Cc3c(-c4cccc(C(N)=O)c4)ccnc3O2)cc1 (stereo not given) | 2320 nM
54 | COc1cc(C2c3cc4c(cc3OC(Nc3ccc(C(=O)O)cc3)C2C)OCO4)cc(OC)c1OC (stereo not given) | 10700 nM
55 | CC1(C(=O)NCc2cccs2)Cc2c(-c3cccc(C(F)(F)F)c3)ccnc2O1 (stereo not given) | 15100 nM
56 | CC[C@H](C)C(=O)O[C@H]1CCC=C2C=C[C@H](C)[C@H](CC[C@@H]3C[C@@H](O)CC(=O)O3)[C@H]21 | 180 nM
57 | COc1ccc(OC)c(N(CC(=O)Nc2cccc3ccccc23)S(C)(=O)=O)c1 | 3100 nM
58 | CCOC(=O)Nc1nc2ccc(Cn3cccc3)cc2[nH]1 | 674 nM
59 | Cc1cccc2c(N)c3c(nc12)N(C)CC3 | 7370 nM
60 | COc1cccc(C(N)c2nc(-c3csc4ccccc34)cs2)c1 (stereo not given) | 3590 nM
61 | CSc1ccc(/C=N/NC(=O)c2ccccc2Cl)cc1 | 3680 nM
62 | Clc1ccc(C2=Nn3c(nnc3-c3cc(-c4ccccc4)n[nH]3)SC2)cc1 | 5130 nM
63 | Cc1ccc(NC(=O)CSc2nnc(-c3ccco3)c(-c3ccco3)n2)cc1 | 1240 nM
64 | COc1ccccc1C(=O)Nc1nnc(CCc2ccccc2)s1 | 3720 nM
65 | CCOC(=O)c1ccc(N=c2sc(C(=O)OC)cc(=O)n2Cc2ccco2)cc1 | 3830 nM
66 | COc1ccc(NC(=O)C(=O)NCC2CCCN2S(=O)(=O)c2cccs2)cc1 (stereo not given) | 5020 nM

Row | Compound | AC26
67 | CN(CCCNC(=O)CCCOc1cc(=O)n(C)c2ccccc12)Cc1ccccc1 | 5230 nM
68 | Cn1c(=O)c([N+](=O)[O-])c(-n2ccnc2)c2ccccc21 | 4170 nM
69 | COc1cc(C)cc(C(=O)C=Cc2ccccc2)c1O | 4920 nM
70 | COc1ccc(CC(=O)N(Cc2ccccc2)c2ccc(C)cc2)cc1S(=O)(=O)N1CCOCC1 | 1160 nM
71 | CCOc1cc(N2CCOCC2)c(OCC)cc1NC(=O)c1[nH]c(C)c(C(C)=O)c1C | 1620 nM
72 | Clc1ccc(CSc2cnnc3ccccc23)cc1Cl | 13500 nM
73 | O=C(Nc1ccccc1O)c1ccc(NC(=O)C2CC2)cc1 | 4330 nM
74 | O=C(NCCN1C(=O)S/C(=C\c2ccccc2Cl)C1=O)C1=COCCO1 | 7850 nM
75 | COc1ccc2cc(CN(CC3CCCO3)C(=O)Nc3ccccc3OC)c(=O)[nH]c2c1 (stereo not given) | 4020 nM
76 | Cc1ccc(-c2nc(NCCN(C)C)c3ccccc3n2)cc1 | 4940 nM
77 | CC(C)(C)n1nnnc1C(c1ccccc1)N1CCc2ccccc2C1 (stereo not given) | 13900 nM
78 | CC(=O)Nc1sc(C)c(C)c1C(=O)OCC(=O)Nc1ccccc1 | 4780 nM
79 | CC(O)CN=c1cc(-c2ccccc2)oc2ccc(Cl)cc12 (stereo not given) | 1150 nM
80 | O=C(CCl)N1c2ccccc2Sc2c1ccc1ccccc21 | 257 nM
81 | COc1ccc(S(=O)(=O)Nc2c(C(=O)O)[nH]c3ccc(OC)cc23)c(OC)c1 | 5750 nM
82 | CCCOc1ccccc1C1CC(=O)NC2=C1C(=O)CCC2 (stereo not given) | 2250 nM
83 | CCOC(=O)c1c(NC(C)=O)sc2c(OCCN(CC)CC)c(Br)ccc12 | 2690 nM
84 | COc1ccc2nc(C)cc(Nc3ccc(N4CCOCC4)cc3)c2c1 | 1260 nM
85 | CCOC(=O)c1[nH]c(C)c(C(=O)Nc2ccc(C)cc2C)c1C | 494 nM
86 | C[C@H]1CN([C@@H](C)CO)C(=O)Cc2cc(NC(=O)CCC(F)(F)F)ccc2O[C@H]1CN(C)S(=O)(=O)c1ccc(Cl)cc1 | 2260 nM
87 | Cc1ccc(C(=O)N/C(=C\c2ccco2)C(=O)NCCc2c[nH]c3ccccc23)cc1 | 2310 nM
88 | Cc1ccc(C(=O)/C=C/c2ccc(Br)cc2)o1 | 16600 nM

Row | Compound | AC26
89 | O=C1[C@H]2[C@@H](c3ccc(F)cc3)N3C(=O)N(c4cccc(Cl)c4)C(=O)[C@@]3(Cc3ccccc3)[C@H]2C(=O)N1C1CCCCC1 | 16.4 nM
90 | CSCCOC(=O)c1[nH]c2c(c1C)C(=O)CC(c1ccco1)C2 (stereo not given) | 526 nM
91 | CC1CN(c2nc(-c3ccccc3)nnc2-c2ccccc2)CC(C)O1 (stereo not given) | 368 nM
92 | Cc1ccc2[nH]c(=O)c3cc(C(=O)NC(C)C)sc3c2c1 | 3990 nM
93 | CC(C)(C)c1ccc(OCc2ccc(C(=O)Nc3cccnc3)o2)cc1 | 7560 nM
94 | Oc1ccc(-c2csc(-c3c[nH]c4ccccc34)n2)c(O)c1 | 3410 nM
95 | CC(=O)c1ccc(N2CCN(C(=O)c3cccc(Oc4ccccc4)c3)CC2)cc1 | 1140 nM
96 | COc1cc(-c2nccc3cc4c(cc23)OCO4)cc(OC)c1OC | 1490 nM
97 | CN(C)S(=O)(=O)c1ccc(N2CCCC2)c(C(=O)Nc2nc(-c3ccc(F)cc3)cs2)c1 | 1550 nM
98 | CO/N=C\CC(=O)Nc1ccc(Cl)cc1Cl | 1070 nM
99 | Cc1cc(-n2c(SCC(=O)NCCC3=CCCCC3)nc3n[nH]c(C)c3c2=N)ccc1Cl | 4030 nM
100 | C/C(=N\O)C(=O)C(CN1CCCCC1)CN1CCCCC1 | 1500 nM
101 | COc1ccc(CCn2c(=N)c(C(=O)NCc3ccco3)cc3c(=O)n4ccccc4nc32)cc1 | 2810 nM
102 | Cc1cc(NC(=O)CSc2nc3sc(C)c(C)c3c(=O)n2C2CCCC2)no1 | 4700 nM
103 | COc1cccc(C(=O)Nc2ccc(N3CCN(C(=O)c4ccco4)CC3)cc2)c1 | 10700 nM
104 | C[C@@]12C(=O)Nc3cc(F)c(F)cc3C(=O)N1[C@H]1c3ccccc3OC[C@@H]1[C@@H]2c1ccccc1 | 784 nM
105 | O=C(Nc1ccc(-c2nc3cc(NC(=O)c4cccs4)ccc3o2)cc1)c1cccs1 | 4310 nM
106 | Cc1[nH][nH]c(=O)c1C(c1ccc(-c2ccc(F)cc2)o1)c1c(C)[nH][nH]c1=O | 4090 nM
107 | COc1cc(NC(=O)c2ccccc2OCc2ccccc2)cc(OC)c1OC | 1030 nM
108 | COc1ccc(-c2nc3c(s2)CCc2onc(-c4ccc(OC)cc4)c2-3)cc1 | 14400 nM
109 | COc1ccc(NC(=O)c2cc3c(=O)n(C)c4ccccc4c3n2C)cc1OC | 2940 nM
110 | COc1ccc2noc3c2c1C(=O)c1ccccc1-3 | 441 nM

Source: PubChem BioAssay AID624491 (Broad Institute, 2012)
